Experimental data: patent publication US10604513B2, “Pyridone derivative comprising heteroatomic ring butane substituent, for treating fibrosis and inflammatory diseases” (SHIJIAZHUANG SAGACITY NEW DRUG DEVELOPMENT CO., LTD., priority 2016, dated 2020)

What was measured:
[1] = tested on: endotoxin (LPS)-induced TNF-α in rat blood; assay: Effect of compounds on endotoxin (LPS)-induced TNF-α in rat blood in vitro; assay type: cell-based, Sprague Dawley rats; conditions: for inhibition of TNF-α level induced by LPS (in words): compared with Pirfenidone; for inhibition at 100 µM: tested concentration of compound 0.1 mM; for inhibition at 100 µM / inhibition at 500 µM: LPS 100 μg/mL, rat blood, 5 h; for inhibition at 500 µM: tested concentration of compound 0.5 Mm (footnote *)
Method: Main task: evaluation on effect of compounds on endotoxin (LPS)-induced TNF-α in rat blood in vitro
Experimental purpose: testing effect of compounds on endotoxin (LPS)-induced TNF-α in rat blood in vitro, and evaluate effect of compounds on endotoxin (LPS)-induced TNF-α in rat blood in vitro
Sprague Dawley rats (male, 210-260 g, Shanghai Slac Laboratory Animal CO. LTD) Rat TNF-alpha Quantikine ELISA Kit (R&D, #SRTA00)
A solution of the compound was prepared (5 mM or 1 mM), 40 μL was added into a 48-well cell culture plate, respectively (the final concentration was 0.5 or 0.1 mM). The rats were hocussed with isoflurane and blood was collected from the abdominal aorta (Heparin anticoagulant). The blood was added into a 48-well cell culture plate (320 μL per well) containing the compounds to be tested. And then the 48-well cell culture plate was incubated at 37° C. After 30 min, the plate was added with 40 μL LPS (the final concentration was 100 μg/mL), and then were incubated at 37° C. after mixed. After 5 h, the 48-well plate was taken out and the blood was transferred into 1.5 mL centrifuge tubes and centrifuged in the centrifugal machine (4,500 rpm, 4° C., 5 min). The upper plasma was separated and kept portions (20 μL per well) into 96-well sample plate, and then sharp-frozen and preserved at refrigerator (−80° C.). The second day, the TNF-α level on the blood samples was tested by using R&D ELISA kits according to the kit specification. The data was analyzed by EXCEL and Prism.

[2] = tested on: SD rat pulmonary fibrosis induced by Bleomycin; assay: Efficacy trial in vivo: SD rat pulmonary fibrosis induced by Bleomycin; conditions: for improving tissue damage in the area and margin of pulmonary fibrosis lesions: doses per Table 5, FIGS. 1-4; for efficacy compared with the reference compound Pirfenidone: oral, 14 days
Description: Experimental purpose: test preventive therapeutic effects of compounds on SD rat pulmonary fibrosis induced by Bleomycin
Model: SD rat pulmonary fibrosis on the left lung; pulmonary fibrosis modelled by injecting Bleomycin into rat trachea
Molding agent: Bleomycin (BLM)
1 ? experimental grouping: efficacy trial for twice, besides common modeling group and Pirfenidone group as control reference, tested compounds were divided into […], i.e. model group (Group -1, n=7, Vehicle), control reference drug (group-2, n=7, Pirfenidone); tested compound WX001 group (Group-3, n=7), tested compound WX002 high dosage group (Group-4, n=7), tested compound WX002 low dosage group (Group-5, n=7) (Table 5)
2 ? Drug administration: Orally administering on the day the model was established, twice a day and administration for 14 day continuously 3 ? Physiological observation of experimental animal: detecting changes in animal weight (test weight before administration every day); detecting animal death rate during test period 4 ? euthanasia of animal after 14 days, formalin was injected into left lung to fix, and test volume and weight of left lung after injection and then test Lung Pathology (Table 6)
Test Results of Experiment: Test of tissue pathology of left lung: pathological evaluation of H&E dye: 1) pathological changes of left lung terminal bronchiole, 2) pathological changes of left lung pulmonary arteriole; pathological evaluation of Masson Thrichrome dye: 3) area of left lung pulmonary fibrosis, 4) score of left lung pulmonary fibrosis.

Compound | inhibition of TNF-α level induced by LPS (in words) ([1]; 0.1 mM as final concentration) | inhibition at 100 µM [1] [%] | inhibition at 500 µM [1] [%] | other results
O=c1ccc(C2(F)COC2)cn1-c1ccsc1 [WX011] | significant inhibition | 78.8 | – | –
CC1(c2ccc(=O)n(-c3csc(Cl)c3)c2)COC1 [WX003] | significant inhibition | 84.7 | – | –
CC1(c2ccc(=O)n(-c3ccccc3)c2)COC1 [WX001] | – | – | 86.3 | inhibition of TNF-α level induced by LPS (in words) ([1]; 0.5 mM): significant inhibition; improving tissue damage in the area and margin of pulmonary fibrosis lesions ([2]; oral twice a day for 14 days): good effect
CC1(c2ccc(=O)n(-c3ccsc3)c2)COC1 [WX002] | significant inhibition | 74.6 | – | efficacy compared with the reference compound Pirfenidone ([2]; low dose of 50 mpk group): better efficacy than Pirfenidone; preventing the formation of pulmonary fibrosis ([2]; oral twice a day for 14 days, FIG. 5): good effect; improving tissue damage in the area and margin of pulmonary fibrosis lesions ([2]; oral twice a day for 14 days): good effect; efficacy compared with the reference compound Pirfenidone ([2]; same dose of 100 mpk group): better efficacy than Pirfenidone
Cc1ccc(=O)n(-c2ccccc2)c1 [Pirfenidone, reference compound] | – | – | 51.4 | –
O=c1ccc(C2(O)COC2)cn1-c1ccsc1 [WX009] | – | – | 51.5 | –
CC1(c2ccc(=O)n(-c3cscn3)c2)COC1 [WX005] | – | 61.6 | – | –
Cc1cc(-n2cc(C3(C)COC3)ccc2=O)cs1 [WX004] | significant inhibition | 89.5 | – | –
